Where “and” joins values, the source holds several entries; their conditions need not be identical. Equal values may be shown once. Inconclusive results and toxic doses are left out.
Tested on: BDF1 mice, P388 leukemia ip, median survival T/C
Assay: NCI In Vivo Anticancer Drug Screen. Data for tumor model P388 Leukemia (intraperitoneal) in B6D2F1 (BDF1) mice
Conditions: endpoint: median survival time, higher = longer survival
Method in brief: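 Compound-treated tumour-bearing mice were compared with vehicle-treated controls. Survival was recorded, and the value is the treated-group measurement divided by the control-group measurement (T/C).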

[1] = dose: 100.0 mg/kg/injection, schedule: Q01DX009 (ip), vehicle: saline
[2] = dose: 6.25 mg/kg/injection, schedule: Q04DX003 (ip), vehicle: saline with Tween-80
[3] = dose: 12.5 mg/kg/injection, schedule: Q04DX003 (ip), vehicle: saline with Tween-80
[4] = dose: 25.0 mg/kg/injection, schedule: Q04DX003 (ip), vehicle: saline with Tween-80

O=C(O)C(S)C(S)C(=O)O.[As] (stereo unspecified)
T/C (dose: 25.0 mg/kg/injection, schedule: Q01DX009 (ip), vehicle: saline): 94 % of control
T/C (dose: 25.0 mg/kg/injection, schedule: Q04DX003 (ip), vehicle: saline sonified): 118 % of control
T/C (dose: 50.0 mg/kg/injection, schedule: Q01DX009 (ip), vehicle: saline): 88 % of control
T/C (dose: 50.0 mg/kg/injection, schedule: Q04DX003 (ip), vehicle: saline sonified): 118 % of control
T/C [1]: 88 % of control
T/C (dose: 100.0 mg/kg/injection, schedule: Q04DX003 (ip), vehicle: saline sonified): 122 % of control

CN=c1ccc2nc3ccc(N)cc3sc-2c1
T/C (dose: 50.0 mg/kg/injection, schedule: Q01DX005 (ip), vehicle: saline with Tween-80): 103 % of control

Nc1ccn(C2OC(CO)C(O)C2O)c(=O)n1 (stereo unspecified)
T/C (dose: 5.0 mg/kg/injection, schedule: Q01DX010 (ip), vehicle: saline): 190 % of control
T/C (dose: 13.0 mg/kg/injection, schedule: Q03HX024 (ip), vehicle: saline): 300 % of control
T/C (dose: 16.0 mg/kg/injection, schedule: Q01DX005 (ip), vehicle: saline): 170 % of control
T/C (dose: 50.0 mg/kg/injection, schedule: Q01DX005 (ip), vehicle: Klucel (hydroxypropylcellulose) (HPC)): 150 % of control
T/C (dose: 60.0 mg/kg/injection, schedule: Q01DX010 (ip), vehicle: water): 90 % of control and 110 % of control
T/C (dose: 80.0 mg/kg/injection, schedule: Q01DX009 (ip), vehicle: water): 86 % of control
T/C (dose: 80.0 mg/kg/injection, schedule: Q01DX010 (ip), vehicle: water): 90 % of control
T/C [1]: 100 % of control
T/C (dose: 100.0 mg/kg/injection, schedule: Q01DX009 (ip), vehicle: water): 86 % of control and 90 % of control
T/C (dose: 100.0 mg/kg/injection, schedule: Q01DX010 (ip), vehicle: water): 90 % of control
T/C (dose: 160.0 mg/kg/injection, schedule: Q01DX010 (ip), vehicle: saline): 100 % of control
T/C (dose: 200.0 mg/kg/injection, schedule: Q01DX001 (ip), vehicle: saline): 100 % of control
T/C (dose: 200.0 mg/kg/injection, schedule: Q01DX009 (ip), vehicle: saline): 91 % of control and 110 % of control
T/C (dose: 256.0 mg/kg/injection, schedule: Q01DX005 (ip), vehicle: saline): 96 % of control
T/C (dose: 1500.0 mg/kg/injection, schedule: Q04DX003 (ip), vehicle: water): 200 % of control

CCCCC(I)C(C)(C)[n+]1ccccc1 (stereo unspecified)
T/C (dose: 3.12 mg/kg/injection, schedule: Q04DX003 (ip), vehicle: saline with Tween-80): 100 % of control
T/C [2]: 95 % of control
T/C (dose: 12.5 mg/kg/injection, schedule: Q01DX009 (ip), vehicle: saline with Tween-80): 100 % of control
T/C [3]: 87 % of control
T/C (dose: 25.0 mg/kg/injection, schedule: Q01DX009 (ip), vehicle: saline with Tween-80): 113 % of control
T/C [4]: 103 % of control
T/C (dose: 50.0 mg/kg/injection, schedule: Q04DX003 (ip), vehicle: saline with Tween-80): 96 % of control

N#CCC(=O)N1Cc2cc3ccccc3nc2C1
T/C (dose: 50.0 mg/kg/injection, schedule: Q01DX001 (ip), vehicle: saline sonified): 100 % of control
T/C (dose: 100.0 mg/kg/injection, schedule: Q01DX001 (ip), vehicle: saline sonified): 100 % of control
T/C (dose: 200.0 mg/kg/injection, schedule: Q01DX001 (ip), vehicle: saline sonified): 100 % of control

COC(=O)CCCCCCCCC(C)c1ccccc1 (stereo unspecified)
T/C (dose: 264.0 mg/kg/injection, schedule: Q01DX009 (ip), vehicle: saline): 110 % of control
T/C (dose: 400.0 mg/kg/injection, schedule: Q01DX009 (ip), vehicle: saline): 110 % of control

C/C(=N\NC(=S)N1CCC(O)CC1)c1ccccn1
T/C [2]: 104 % of control
T/C [3]: 108 % of control
T/C [4]: 113 % of control

CCOC(=O)c1cc(N)c(C(=O)OCC)cc1N
T/C (dose: 50.0 mg/kg/injection, schedule: Q01DX009 (ip), vehicle: saline with Tween-80): 99 % of control and 114 % of control
T/C (dose: 100.0 mg/kg/injection, schedule: Q01DX009 (ip), vehicle: saline with Tween-80): 98 % of control and 108 % of control
T/C (dose: 200.0 mg/kg/injection, schedule: Q01DX009 (ip), vehicle: saline with Tween-80): 106 % of control
T/C (dose: 400.0 mg/kg/injection, schedule: Q01DX009 (ip), vehicle: saline with Tween-80): 99 % of control

Source: PubChem BioAssay AID328 (DTP/NCI, 2004)
